Measured values as given in PMC6370762, “Endogenous pore-forming protein complex targets acidic glycosphingolipids in lipid rafts to initiate endolysosome regulation” (Communications Biology, 2019).
Read-outs that look alike come from different tables or passages of the source.

Assays:
[1] = target: T1, βγ-CAT; conditions: PBS pH 7.4, 37 °C; 1:1 global fit; gangliosides bind the BmALP1 subunit
T1 construct: gene BmALP1

[2] = target: BmTFF3 (Bombina maxima, UniProt B2BRT2); conditions: PBS pH 7.4, 37 °C; 1:1 global fit; also bound on lipid overlay strips
Chain of BmTFF3 (B2BRT2 21-166 limits assumed): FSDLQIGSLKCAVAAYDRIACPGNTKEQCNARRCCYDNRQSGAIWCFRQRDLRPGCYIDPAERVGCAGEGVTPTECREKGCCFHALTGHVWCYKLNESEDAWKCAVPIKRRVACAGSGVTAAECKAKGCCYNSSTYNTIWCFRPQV

[3] = target: T1, βγ-CAT; conditions: PBS pH 7.4, 37 °C; 1:1 global fit; site on BmTFF3 subunit

GD1a
Kd [1]: 76.3 nM

GD1b
Kd [1]: 521 nM

GD3
Kd [1]: 46.7 nM

GM1
Kd [1]: 30.5 nM

GM2
Kd [1]: 53.7 nM

GM3
Kd [1]: 10.2 nM

GM4
Kd [1]: 46.3 nM

GT1b
Kd [1]: 527 nM

sulfatides
Kd [2]: ~62.3 nM | Kd [3]: 65.5 nM
